The values that follow come from a melting point compilation (Tetko et al.; mined from patent text by program, amines drawn as free bases though some values may be those of a salt).

In turn, `COCCCc1ccc(C#CC2(O)CN3CCC2CC3)cc1` (stereo not given) displayed a melting point of 145 °C.

`O=C1Oc2ccc(Br)cc2C1c1ccc(Cl)cc1Cl` (stereo not given) gave a melting point of 149 to 150 °C.

In turn, `O=C(CCC1CCCCC1)NC1N=C(C2CCCCC2)c2ccccc2NC1=O` (stereo not given) gave a melting point of 133 to 138 °C.

In turn, `NS(=O)(=O)c1ccc(-c2cc3c(cc2-c2ccc(F)cc2)OCO3)cc1` registered a melting point of 191 to 192 °C.

As for `Cc1cc(Cc2cnc(NCCCCc3ncc(Br)cc3C)[nH]c2=O)cnc1CO`, the melting point was 136 to 141 °C.

The compound `CCOC(=O)c1cnc(N)s1` came in with a melting point of 155 to 158 °C.

The compound `CCNC(=O)C[C@@H]1N=C(c2ccc(Cl)cc2)c2cc(OC)ccc2-n2c(C)nnc21` displayed a melting point above 140 °C.

As for `CC(C#N)c1ccc(-c2nc3ccccc3o2)cc1` (stereo not given), the melting point was in the range of 116 to 117 °C.

Compound `CC(C(N)=O)c1ccc2c(c1)C(=O)Cc1ccccc1S2` (stereo not given) displayed a melting point of 190 to 192 °C.

As for `CCOC(=O)C1(Cl)Oc2c(cc(C(=O)c3ccccc3F)c(OC)c2C)C1Cl` (stereo not given), the melting point was determined as 102 °C.

On to `COc1cc2ncc(NC3CCCCC3)nc2cc1N1CCOCC1`, for which the melting point was 194 to 196 °C.

`O=C(O)CNC1=Nc2ccc(Cl)cc2C(c2ccccc2)=NC1` returned a melting point of 215 to 220 °C.

Compound `COc1ccc(COCc2nnc3n2-c2ccc(Cl)cc2C(c2ccccc2Cl)=NC3)cc1` returned a melting point of 235 to 237 °C.

As for `C[C@@H](n1cnc2cc(N)c(F)cc2c1=O)[C@](O)(Cn1cncn1)c1ccc(F)cc1F`, the melting point was in the range of 124 to 125 °C.

Turning to `O=C(O)C1Cc2c(c(Cl)cc3c(-c4ccc(F)cc4)noc23)O1` (stereo not given), the melting point was 215 to 218 °C.

For the compound `COC(=O)c1cccc(N2CC(C)=CC2=O)c1`, the melting point is 87 to 89 °C.

`COc1ccccc1-c1ccc(C)cc1` registered a melting point of 70 to 72 °C.

In turn, `Cc1nn(-c2ccc(C(F)(F)F)cn2)cc1CCCO` registered a melting point of 103 to 104 °C.

The compound `COc1cc(C=O)c2oc(-c3ccc(OC)c(F)c3)cc2c1` yielded a melting point of 161 to 163 °C.

`COc1cc(NC(C)=O)c(Cl)cc1C(=O)NC1CC2CCCCN2C1` (stereo not given) displayed a melting point of 151 to 153 °C.

In turn, `CCN1CC[C@@H]2CC(=O)c3cc(F)ccc3[C@@H]2C1` (relative stereo) gave a melting point above 220 °C.

The compound `COc1ccccc1N1CCN(CCCC2CCc3onc(-c4ccc(F)cc4)c3C2=O)CC1` (stereo not given) displayed a melting point of 107 to 108 °C.

`COC(C)(C)c1ccc(-c2cc(-c3c[nH]nc3-c3cccc(C)n3)ccc2F)nc1` registered a melting point of 168 to 169 °C.

For `NS(=O)(=O)c1cc2c(s1)CNCC2`, the melting point fell in the range of 172 to 175 °C.

`CCCCCc1nc2cnc3ccccc3c2[nH]1` gave a melting point of 142 to 143 °C.

In turn, `FC(F)(F)c1ccccc1N=C1CCCc2cc3c(nc21)C(=Nc1ccccc1C(F)(F)F)CCC3` returned a melting point of 162 to 164 °C.

In the case of `CN1Cc2c(c3ccccc3c3ccccc23)C1`, the melting point was in the range of 122 to 123 °C.

Compound `O=C1Nc2ccccc2N(C(=O)CN2CCOCC2)c2ncncc21` returned a melting point of 240 to 242 °C.

On to `O=C(CCCc1ccccc1)N[C@H](Cc1ccccc1C(F)(F)F)[C@@H](O)c1ccc(F)cc1` (racemic), for which the melting point was in the range of 161 to 162 °C.

For the compound `Nc1ncnc2c1ncn2Cc1oc2ccc(Br)cc2c(=O)c1-c1ccc(F)cc1`, the melting point lay in the range of 238 to 242 °C.

With `COc1cc(C(C)=O)ccc1OCCCCN1CCC(C(O)(c2ccc(F)cc2)c2ccc(F)cc2)CC1`, the melting point lay in the range of 104 to 105 °C.

`O=C(Nc1ccc(OCCN2CCOCC2)c2ccccc12)c1cc(F)cc(OC2CCCC2)c1` showed a melting point of 117 to 119 °C.

The compound `CC1CCCN(C(=O)C2Cc3cc(O)ccc3N2c2ccc(=O)n(C)n2)C1` (stereo not given) displayed a melting point of 253 to 256 °C.

`CC(C)(C)OC(=O)c1nc(-c2ccc(Cl)cc2Cl)n(-c2ccc(Cl)cc2)c1S(C)(=O)=O` gave a melting point of 130 °C.

With `Cc1ccccc1-c1nc(-c2cccc(Cl)c2)n[nH]1`, the melting point was in the range of 147 to 148 °C.

Compound `CCCCCCCCCCCCCCCCCCCCC(=O)Nc1ccn(C2OC(CO)C(O)C2O)c(=O)n1` (stereo not given) displayed a melting point of 139 to 142 °C.

With `Nc1nc2cc3[nH]c(-c4ccncc4)nc3cc2[nH]1`, the melting point was above 320 °C.

In turn, `CC(=O)C(=NNc1ccccc1)C(=O)N(C(C)C)C(C)C` displayed a melting point of 143 to 145 °C.

For `Cc1ccc2c(c1)oc1c(C(=O)NC34CC5CC(CC(C5)C3)C4)nn(-c3ccc(Cl)cc3Cl)c12`, the melting point lay within 210 to 212 °C.

Regarding `Cn1c(C(F)(F)F)cc(=O)n(-c2ccc3snc(CN(C(=O)OC(C)(C)C)S(C)(=O)=O)c3c2)c1=O`, the melting point lay in the range of 109 to 111 °C.

The compound `Cc1ccc(C(=O)Nc2ccc3c(c2NC(=O)c2ccc(C)cc2)C(=O)c2ccccc2C3=O)cc1` yielded a melting point of 227 to 229 °C.

`O=S(=O)(Nc1cccc(CCOCc2csc(-c3ccc(OC(F)(F)F)cc3)n2)c1)C(F)(F)F` registered a melting point of 115 to 116 °C.

`CCCCc1ncc(/C=C(\Cc2cccs2)C(=O)O)n1Cc1cc(Cl)c(C(=O)O)cc1Cl`: the melting point stood at 145 °C.

In the case of `C[C@H]1CCCN(C(=O)[C@@H]2Cc3ccccc3N2c2nccs2)C1`, the melting point was 167 to 169 °C.

Consider `COc1cccc(N(CC(=O)N(C)c2ccccc2)C(=O)CNC(=O)Nc2cccc(C(C)O)c2)c1` (racemic), for which the melting point is 115 °C.

As to `Cc1cccc(-c2c(CC(=O)Nc3ccc(F)cc3C(F)(F)F)c(=O)oc3cc4c(cc23)CCC4O)c1` (stereo not given), the melting point was 225 to 227 °C.

Take `O=c1[nH]c2cc3nc(-c4ccncc4)[nH]c3cc2[nH]c1=O`: the melting point was above 300 °C.

In the case of `CCCCc1nc2c(N)nc3c(c2n1CC(C)(C)OCCS(C)(=O)=O)CCCC3`, the melting point lay in the range of 146 to 148 °C.

`COCc1nnc(-c2ccc3occ(-c4cccc(OC(F)(F)F)c4)c3c2)o1` yielded a melting point of 90 to 91 °C.

`COC(=O)Cc1coc2cc(OCc3cc(-c4ccc(Cl)cc4)on3)ccc12` returned a melting point of 136 to 137 °C.

Turning to `OC[C@H](O)[C@H](O)COc1nc(N2CCNCC2)nc2ccccc12` (racemic), the melting point fell in the range of 168 to 172 °C.

In turn, `COC(=O)c1cnc(S)n1Cc1cc(F)cc(F)c1` registered a melting point of 177 to 178 °C.

The compound `Cn1nc(-c2cnc3[nH]cc(C(=O)NC4CCCC4)c3n2)c2ccc(Cl)cc21` gave a melting point of 341 to 343 °C.

Take `CC(=O)OC(C(Oc1ccc(Cl)cc1)n1ccnc1)C(C)(C)C` (stereo not given): the melting point was 81 to 91 °C.

`CCc1c(C(=O)C(N)=O)c2c(OCC(=O)N(C)OC)cccc2n1Cc1ccccc1` gave a melting point of 168 to 170 °C.

As to `CCC(C)(Oc1ccc(OCc2cc(-c3ccc(O)cc3)no2)cc1)C(=O)O` (stereo not given), the melting point lay within 142 to 144 °C.

In the case of `CC(=O)Nc1ccc(S(=O)(=O)NCc2noc(-c3c4ccccc4nn3CCn3ccnc3)n2)cc1`, the melting point fell in the range of 160 to 161 °C.

Compound `COc1ccc(OC(=O)N2CCCC2=O)cc1` returned a melting point of 133 to 134 °C.

The compound `COc1cc2c(=O)n(CCCO)c3c4ccccc4[nH]c(=O)c3c2cc1OC` registered a melting point of 313 °C.

In turn, `COc1c2c(c(OC)c(OC)c1OC)CCC(CCOc1ccc(-c3ccccc3)cc1)CC2` showed a melting point of 115 to 120 °C.
